According to PubChem BioAssay AID1259407 (Chemical Carcinogenesis Research Information System (CCRIS), 2018):
Calls of active or inactive are those of the source. The rule behind the calls is not given here.

Test system: CCRIS mutagenicity, Ames/micronucleus/aberration tests
Test: CCRIS mutagenicity studies
[1] = Test System: AMES SALMONELLA TYPHIMURIUM, Strain/Indicator: TA98, Metabolic Activation: HAMSTER, LIVER, S-9, AROCLOR 1254, Method: STANDARD PLATE
[2] = Test System: AMES SALMONELLA TYPHIMURIUM, Strain/Indicator: TA98, Metabolic Activation: NONE, Method: STANDARD PLATE
[3] = Test System: AMES SALMONELLA TYPHIMURIUM, Strain/Indicator: TA98, Metabolic Activation: RAT, LIVER, S-9, AROCLOR 1254, Method: STANDARD PLATE
[4] = Test System: AMES SALMONELLA TYPHIMURIUM, Strain/Indicator: TA100, Metabolic Activation: HAMSTER, LIVER, S-9, AROCLOR 1254, Method: STANDARD PLATE
[5] = Test System: AMES SALMONELLA TYPHIMURIUM, Strain/Indicator: TA100, Metabolic Activation: NONE, Method: STANDARD PLATE
[6] = Test System: AMES SALMONELLA TYPHIMURIUM, Strain/Indicator: TA100, Metabolic Activation: RAT, LIVER, S-9, AROCLOR 1254, Method: STANDARD PLATE

For `COc1ccc2c(c1)-c1c(OC)c(OC)cc3c1C(C2=O)N(C)CC3` (stereo unspecified), the mutagenic call (Test System: AMES SALMONELLA TYPHIMURIUM, Strain/Indicator: TA100, Metabolic Activation: RAT, LIVER, S-9, PHENOBARBITAL AND BETA-NAPHTHOFLAVONE, Method: PREINCUBATION) was “inactive; negative”.
For `O=c1oc2cc(O)ccc2c2oc3cc(O)ccc3c12`, the mutagenic call (End Point: IN VITRO CHROMOSOMAL ABERRATIONS, Test System: HUMAN PERIPHERAL LYMPHOCYTES, Metabolic Activation: NONE) was “active; positive (structural changes)”, the mutagenic call [1] was “inactive; negative” and the mutagenic call [2] was “inactive; negative”. The mutagenic call [3] was “inactive; negative”, the mutagenic call [4] was “inactive; negative” and the mutagenic call [5] was “inactive; negative”. For the same compound, the mutagenic call [6] was “inactive; negative”, the mutagenic call (Test System: AMES SALMONELLA TYPHIMURIUM, Strain/Indicator: TA1535, Metabolic Activation: HAMSTER, LIVER, S-9, AROCLOR 1254, Method: STANDARD PLATE) was “inactive; negative” and the mutagenic call (Test System: AMES SALMONELLA TYPHIMURIUM, Strain/Indicator: TA1535, Metabolic Activation: NONE, Method: STANDARD PLATE) was “inactive; negative”. The mutagenic call (Test System: AMES SALMONELLA TYPHIMURIUM, Strain/Indicator: TA1535, Metabolic Activation: RAT, LIVER, S-9, AROCLOR 1254, Method: STANDARD PLATE) was “inactive; negative”, the mutagenic call (Test System: AMES SALMONELLA TYPHIMURIUM, Strain/Indicator: TA1537, Metabolic Activation: HAMSTER, LIVER, S-9, AROCLOR 1254, Method: STANDARD PLATE) was “inactive; negative” and the mutagenic call (Test System: AMES SALMONELLA TYPHIMURIUM, Strain/Indicator: TA1537, Metabolic Activation: NONE, Method: STANDARD PLATE) was “inactive; negative”. For the same compound, the mutagenic call (Test System: AMES SALMONELLA TYPHIMURIUM, Strain/Indicator: TA1537, Metabolic Activation: RAT, LIVER, S-9, AROCLOR 1254, Method: STANDARD PLATE) was “inactive; negative”, the mutagenic call (Test System: AMES SALMONELLA TYPHIMURIUM, Strain/Indicator: TA1538, Metabolic Activation: HAMSTER, LIVER, S-9, AROCLOR 1254, Method: STANDARD PLATE) was “inactive; negative” and the mutagenic call (Test System: AMES SALMONELLA TYPHIMURIUM, Strain/Indicator: TA1538, Metabolic Activation: NONE, Method: STANDARD PLATE) was “inactive; negative”. For the same compound, the mutagenic call (Test System: AMES SALMONELLA TYPHIMURIUM, Strain/Indicator: TA1538, Metabolic Activation: RAT, LIVER, S-9, AROCLOR 1254, Method: STANDARD PLATE) was “inactive; negative”, the mutagenic call (Test System: Ames Salmonella typhimurium, Strain/Indicator: TA102, Metabolic Activation: None, Method: Preincubation) was “inactive; negative” and the mutagenic call (Test System: Ames Salmonella typhimurium, Strain/Indicator: TA102, Metabolic Activation: Rat, Liver, S-9, Aroclor 1254 in 0.154 M KCl, Method: Preincubation) was “inactive; negative”. For the same compound, the mutagenic call (Test System: CHINESE HAMSTER LUNG CELLS, Strain/Indicator: V-79 (HPRT)/6-THIOGUANINE, Metabolic Activation: NONE) was “active; positive”, the mutagenic call (Test System: HUMAN LYMPHOBLASTOID CELLS, Strain/Indicator: AHH-1 CELLS(TK+/TK-), Metabolic Activation: NONE, Method: SUSPENSION/PLATE) was “active; positive” and the mutagenic call (Test System: SYRIAN HAMSTER EMBRYO CELLS, Strain/Indicator: HPRT/6-THIOGUANINE, Metabolic Activation: NONE, Method: PLATE) was “active; positive”.
For `Cc1cc(S(=O)(=O)O)c(N)cc1Cl`, the mutagenic call [1] was “active; positive”, the mutagenic call [2] was “inactive; negative” and the mutagenic call [3] was “active; positive”. For the same compound, the mutagenic call [4] was “inactive; negative”, the mutagenic call [5] was “inactive; negative” and the mutagenic call [6] was “inactive; negative”. The mutagenic call (Test System: Ames Salmonella typhimurium, Strain/Indicator: TA98, Metabolic Activation: None, Method: Preincubation) was “inactive; negative”, the mutagenic call (Test System: Ames Salmonella typhimurium, Strain/Indicator: TA98, Metabolic Activation: Rat, Liver, S9, Sodium phenobarbital and 5,6-benzoflavone (10%), Method: Preincubation) was “inactive; negative” and the mutagenic call (Test System: Ames Salmonella typhimurium, Strain/Indicator: TA100, Metabolic Activation: None, Method: Preincubation) was “inactive; negative”. For the same compound, the mutagenic call (Test System: Ames Salmonella typhimurium, Strain/Indicator: TA100, Metabolic Activation: Rat, Liver, S9, Sodium phenobarbital and 5,6-benzoflavone (10%), Method: Preincubation) was “inactive; negative”, the mutagenic call (Test System: Ames Salmonella typhimurium, Strain/Indicator: TA1535, Metabolic Activation: None, Method: Preincubation) was “inactive; negative” and the mutagenic call (Test System: Ames Salmonella typhimurium, Strain/Indicator: TA1535, Metabolic Activation: Rat, Liver, S9, Sodium phenobarbital and 5,6-benzoflavone (10%), Method: Preincubation) was “inactive; negative”. For the same compound, the mutagenic call (Test System: Ames Salmonella typhimurium, Strain/Indicator: TA1537, Metabolic Activation: None, Method: Preincubation) was “inactive; negative”, the mutagenic call (Test System: Ames Salmonella typhimurium, Strain/Indicator: TA1537, Metabolic Activation: Rat, Liver, S9, Sodium phenobarbital and 5,6-benzoflavone (10%), Method: Preincubation) was “inactive; negative” and the mutagenic call (Test System: E. coli, Strain/Indicator: WP2uvrA/pKM101, Metabolic Activation: None, Method: Preincubation) was “inactive; negative”. For the same compound, the mutagenic call (Test System: E. coli, Strain/Indicator: WP2uvrA/pKM101, Metabolic Activation: Rat, Liver, S9, Sodium phenobarbital and 5,6-benzoflavone (10%), Method: Preincubation) was “inactive; negative”, the mutagenic call (Test System: MOUSE LYMPHOMA, Strain/Indicator: L5178Y (TK+/TK-), Metabolic Activation: NONE, Method: SUSPENSION/PLATE) was “inactive; negative. reevaluation of results: negative” and the mutagenic call (Test System: MOUSE LYMPHOMA, Strain/Indicator: L5178Y (TK+/TK-), Metabolic Activation: RAT, LIVER, S-9, AROCLOR 1254, Method: SUSPENSION/PLATE) was “inactive; negative. reevaluation of results: equivocal”. The mutagenic call (Test System: UDS RODENT HEPATOCYTES, Strain/Indicator: THY INCORP (NON-S-PHASE), Metabolic Activation: NONE, Method: AUTORADIOGRAPHY) was “inactive; negative”.
